Results: patent US4235996A, “Bis(2-imida zolin-2-ylhydrazone)-9,10-dihydro-9,10-anthracenedicarboxaldehydes” (American Cyanamid Company, priority 1978, dated 1980)
≈ marks a conversion by molar mass, not a printed value. Where “and” joins values, the source holds several entries; their conditions need not be identical. Identical values can stand only once. Counter-ions that a name gives are not always drawn.

How the values were obtained:
[1] = tested on: Staphylococcus aureus OSU 75-2; test: Antibacterial spectrum, agar-dilution streak-plate technique; format: cell-based; conditions: OSU752, 37° C., 18 hours, read-out: Minimal Inhibitory Concentration
Procedure: (§1) The antibacterial spectrum, in terms of the concentration required to inhibit the growth of various typical bacteria, was determined in a standard manner by the agar-dilution streak-plate technique. A Steers multiple inocula replicator was used with incubation at 37° C. for 18 hours in Mueller-Ninton agar. The results for typical compounds of this invention are set forth in Table III below as the minimal inhibitory concentration in micrograms per milliliter.

Enterococcus SM 77-15 = test: as above; format: cell-based; conditions: SM7715, 37° C., 18 hours, read-out: Minimal Inhibitory Concentration
Procedure: as §1

[2] = tested on: Staphylococcus aureus Q 74-11; test: as above; format: cell-based; conditions: 37° C.; for MIC: Staphylococcus aureus, Q7411, 18 h, read-out: Minimal Inhibitory Concentration
Procedure: as §1

[3] = tested on: Staphylococcus aureus St. Paul (NYC 78-1); test: as above; format: cell-based; conditions: 37° C., 18 hours, read-out: Minimal Inhibitory Concentration
Procedure: as §1

[4] = tested on: lymphocytic leukemia P388; test: Lymphocytic leukemia P388 test (survival of transplanted mice); format: in vivo
Procedure: Lymphocytic leukemia P388 test
The animals used are mice, all of one sex, weighing a minimum of 18 g. and all within a 3 gram weight range. There are 5 or 6 animals per test group. The tumor transplant is by intraperitoneal injection of 0.1 ml. or 0.5 ml. of dilute ascitic fluid containing 10^6 cells of lymphocytic leukemia p388. The test compounds are administered intraperitoneally on days one, 5 and 9 (relative to tumor inoculation) at various doses. The animals are weighed and survivors are recorded on a regular basis for 60 days. The median survival time and the ratio of survival time for treated (T)/control (C) animals are calculated. The positive control compound is 5-fluorouracil given as an intraperitoneal injection on days one, 5 and 9. […] The criterion for efficacy is T/C×100≥125%.

melanotic melanoma B16 = test: Melanotic Melanoma B16 test (survival of transplanted mice); format: in vivo, C57BC/6 mice
Procedure: The animals used are C57BC/6 mice, all of the same sex, weighing a minimum of 17 g. and all within a 3 g. weight range. There are normally 10 animals per test group. A one-gram portion of melanotic melanoma B16 tumor is homogenized in 10 ml. of cold balanced salt solution and a 0.5 ml. aliquot of the homogenate is implanted intraperitoneally into each of the test mice. The test compounds are administered intraperitoneally on days one through 9 (relative to tumor inoculation) at various doses. The animals are weighed and survivors are recorded on a regular basis for 60 days. The median survival time and the ratio of survival time for treated (T)/control (C) animals are calculated. The positive control compound is 5-fluorouracil given as a 20 mg./kg. injection. The results of this test with representative compounds of the present invention appear in Table II below. The criterion for efficacy is T/C×100≥125%.

[5] = 3.12 mg./kg., i.p. days 1, 5 and 9
[6] = 3.12 mg./kg., i.p. days 1, 5 and 9, efficacy criterion ≥125%
[7] = 6.25 mg./kg., i.p. days 1, 5 and 9
[8] = 6.25 mg./kg., i.p. days 1, 5 and 9, efficacy criterion ≥125%
[9] = 12.5 mg./kg., i.p. days 1, 5 and 9
[10] = 12.5 mg./kg., i.p. days 1, 5 and 9, efficacy criterion ≥125%
[11] = 25 mg./kg., i.p. days 1, 5 and 9
[12] = 25 mg./kg., i.p. days 1, 5 and 9, efficacy criterion ≥125%
[13] = 3 mg./kg., i.p. days one through 9
[14] = 3 mg./kg., i.p. days one through 9, efficacy criterion ≥125%
[15] = 6 mg./kg., i.p. days one through 9
[16] = 6 mg./kg., i.p. days one through 9, efficacy criterion ≥125%
[17] = 12 mg./kg., i.p. days one through 9
[18] = 12 mg./kg., i.p. days one through 9, efficacy criterion ≥125%
[19] = 50 mg./kg., i.p. days 1, 5 and 9
[20] = 50 mg./kg., i.p. days 1, 5 and 9, efficacy criterion ≥125%
[21] = 1.5 mg./kg., i.p. days one through 9
[22] = 1.5 mg./kg., i.p. days one through 9, efficacy criterion ≥125%
[23] = 40 mg./kg., i.p. days 1, 5 and 9 (positive control)
[24] = 60 mg./kg., i.p. days 1, 5 and 9 (positive control)
[25] = 20 mg./kg. injection (positive control)

SMILES | Median Survival [4, 5] | T/C × 100 [4, 6] | Median Survival [4, 7] | T/C × 100 [4, 8] | Median Survival [4, 9] | T/C × 100 [4, 10] | Median Survival [4, 11] | T/C × 100 [4, 12] | Median Survival (melanotic melanoma B16; [13]) | T/C × 100 (melanotic melanoma B16; [14]) | Median Survival (melanotic melanoma B16; [15]) | T/C × 100 (melanotic melanoma B16; [16]) | Median Survival (melanotic melanoma B16; [17]) | T/C × 100 (melanotic melanoma B16; [18]) | Median Survival [4, 19] | T/C × 100 [4, 20] | other results
COc1ccc(OC)c2c1C(C=NNC1=NCCN1)c1ccccc1C2C=NNC1=NCCN1 (centres unmarked) [1,4-Dimethoxy-bis-(2-imidazolin-2-ylhydrazone)-9,10-dihydro-9,10-anthracenedicarboxaldehyde] | – | – | – | – | – | – | – | – | – | – | – | – | – | – | – | – | MIC [1]: 128 µg/mL (≈ 278 µM); MIC (Enterococcus SM 77-15): 256 µg/mL (≈ 556 µM); MIC [2]: 64 µg/mL (≈ 139 µM); MIC [3]: 128 µg/mL (≈ 278 µM)
Clc1cccc2c1C(C=NNC1=NCCN1)c1ccccc1C2C=NNC1=NCCN1 (centres unmarked) [1-Chloro-bis(2-imidazolin-2-ylhydrazone)-9,10-dihydro-9,10-anthracenedicarboxaldehyde dihydrochloride] | 15.5 days | 163% | 16.5 days | 174% | 19.5 days | 205% | 21.0 days | 221% | 22.0 days | 129% | 25.5 days | 150% | 31.0 days | 182% | – | – | –
Clc1ccc2c(c1)C(C=NNC1=NCCN1)c1ccccc1C2C=NNC1=NCCN1 (centres unmarked) [2-Chloro-bis(2-imidazolin-2-ylhydrazone)-9,10-dihydro-9,10-anthracenedicarboxaldehyde dihydrochloride] | 17.5 days | 175% | 18.5 days | 185% | 18.0 days | 180% | 18.0 days | 180% | – | – | – | – | – | – | 20.0 days | 200% | –
Cc1ccc2c(c1)C(C=NNC1=NCCN1)c1ccccc1C2C=NNC1=NCCN1 (centres unmarked) [2-Methyl-bis(2-imidazolin-2-ylhydrazone)-9,10-dihydro-9,10-anthracenedicarboxaldehyde dihydrochloride] | 13.5 days | 142% | 14.5 days | 153% | 16.0 days | 168% | 16.0 days | 168% | 25.0 days | 147% | 28.0 days | 165% | 33.5 days | 197% | 19.0 days | 200% | Median Survival (melanotic melanoma B16; [21]): 24.0 days; T/C × 100 (melanotic melanoma B16; [22]): 141%
O=c1[nH]cc(F)c(=O)[nH]1 [5-Fluorouracil, reference compound] | – | – | – | – | – | – | – | – | – | – | – | – | – | – | – | – | Median Survival [4, 23]: 19.0 days and 18 days; T/C × 100 [4, 23]: 181% and 164%; Median Survival [4, 24]: 15.0 days and 18.5 days; T/C × 100 [4, 24]: 158% and 185%; T/C × 100 ([4]; mouse, in vivo, ip): 158; Median Survival (melanotic melanoma B16; [25]): 30 days and 28.5 days; T/C × 100 (melanotic melanoma B16; [25]): 187% and 168%
C(=NNC1=NCCN1)C1c2ccccc2C(C=NNC2=NCCN2)c2ccccc21 (centres unmarked) [Bis(2-imidazolin-2-ylhydrazone)-9,10-dihydro-9,10-anthracenedicarboxaldehyde dihydrochloride] | – | – | – | 129% | – | 152% | – | – | 22.0 days | 138% | 25.0 days | 156% | 32.0 days | 200% | – | – | Median Survival ([4]; 6.25 mg./kg., i.p. days 1, 5 and 9, dihydrochloride): 13 days; Median Survival ([4]; 12.5 mg./kg., i.p. days 1, 5 and 9, dihydrochloride): 16 days; Median Survival (melanotic melanoma B16; [21]): 21.0 days; T/C × 100 (melanotic melanoma B16; [22]): 131%
C(=NNC1=NCCN1)C1c2ccccc2C(C=NNC2=NCCN2)c2ccccc21 (centres unmarked) [Bis(2-imidazolin-2-ylhydrazone)-9,10-dihydro-9,10-anthracenedicarboxaldehyde] | 14 days | 127% | 16.5 days | 150% | 16.5 days | 150% | 17.5 days | 159% | – | – | – | – | – | – | 20 days | 182% | Median Survival ([4]; 100 mg./kg., i.p. days 1, 5 and 9): 19.5 days; T/C × 100 ([4]; 100 mg./kg., i.p. days 1, 5 and 9, efficacy criterion ≥125%): 177%; Median Survival ([4]; 200 mg./kg., i.p. days 1, 5 and 9): 23 days; Median Survival ([4]; 400 mg./kg., i.p. days 1, 5 and 9): 25 days; T/C × 100 ([4]; 400 mg./kg., i.p. days 1, 5 and 9, efficacy criterion ≥125%): 227%; T/C × 100 ([4]; mouse, in vivo, ip): 209; MIC [1]: 128 µg/mL (≈ 320 µM); MIC (Enterococcus SM 77-15): 16 µg/mL (≈ 40 µM); MIC [2]: 32 µg/mL (≈ 79.9 µM); MIC [3]: 64 µg/mL (≈ 160 µM)
COc1ccc(OC)c2c1C(C=NNC1=NCCN1)c1ccccc1C2C=NNC1=NCCN1 (centres unmarked) [Bis-(2-imidazolin-2-ylhydrazone)-1,4-dimethoxy-9,10-dihydro-9,10-anthracenedicarboxaldehyde dihydrochloride] | – | – | – | – | – | – | – | – | – | – | – | – | – | – | – | – | Minimal Inhibitory Concentration ([2]; 18 hours, dihydrochloride): 128 µg/mL
